Where two headings read alike, the source gives them in different places.
Tests used:
NMuMG cells [1] = test: High-content microscopy EMT screen in TGFβ-treated NMuMG cells (FA, SF, FN, cell count); assay type: cell-based, murine; conditions: for Emax: read-out: Emax (maximal effect on cell count); for Emax (maximal effect on cell count): compared to reference 10 μM SB-431542 = 100%
PDGFRB = PDGFRB (Homo sapiens, UniProt P09619); test: Biochemical kinase profiling (33PanQinase radiometric assay)
FGFR3 = FGFR3 (Homo sapiens, UniProt P22607); test: as above
FGFR3, sequence (P22607 23-806): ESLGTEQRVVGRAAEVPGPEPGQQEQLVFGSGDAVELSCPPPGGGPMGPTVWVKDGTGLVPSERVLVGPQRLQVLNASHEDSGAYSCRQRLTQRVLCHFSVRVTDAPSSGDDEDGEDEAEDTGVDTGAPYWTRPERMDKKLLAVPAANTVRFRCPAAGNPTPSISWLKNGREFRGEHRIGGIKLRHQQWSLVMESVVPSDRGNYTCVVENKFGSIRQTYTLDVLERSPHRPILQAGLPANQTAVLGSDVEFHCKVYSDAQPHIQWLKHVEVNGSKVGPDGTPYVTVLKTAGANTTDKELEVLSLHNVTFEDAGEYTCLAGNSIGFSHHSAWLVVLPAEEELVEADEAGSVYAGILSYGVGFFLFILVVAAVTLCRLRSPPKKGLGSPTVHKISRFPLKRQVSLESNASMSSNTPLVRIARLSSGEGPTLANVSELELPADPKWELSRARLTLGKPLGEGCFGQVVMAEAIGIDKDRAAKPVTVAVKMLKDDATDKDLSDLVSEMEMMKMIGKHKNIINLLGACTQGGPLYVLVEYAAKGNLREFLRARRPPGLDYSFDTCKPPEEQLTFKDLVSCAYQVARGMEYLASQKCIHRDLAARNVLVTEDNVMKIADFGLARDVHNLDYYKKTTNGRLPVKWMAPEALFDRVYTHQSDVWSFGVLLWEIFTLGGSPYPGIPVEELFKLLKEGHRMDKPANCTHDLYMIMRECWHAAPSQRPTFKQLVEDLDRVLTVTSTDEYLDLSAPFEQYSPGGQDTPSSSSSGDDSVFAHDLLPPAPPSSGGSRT

[2] = system: SMAD3 phosphorylation (TGFBR activity); test: Quantification of SMAD3 phosphorylation in TGFβ-treated NMuMG cells (immunoblot, LI-COR); assay type: cell-based, murine; conditions: one day TGFβ plus inhibitor
Experimental: NMuMG cells plated the day before were treated for one day with TGFβ and DMSO or an inhibitor as described in the figure legends. Cells were washed with PBS and lyzed in RIPA buffer (150 mM NaCl, 2 mM MgCl, 2 mM CaCl2, 0.5% Na-deoxycholate, 10% glycerol, 1% NP-40, 0.1% SDS, 50 mM Tris pH8 supplementary with 1 mM DTT, 10 mM NaF, 1 mM sodium orthovanadate and protease inhibitor cocktail (Roche)). The proteins were resolved using SDS-PAGE and transferred to PVDF membrane. For quantitative analysis of SMAD phosphorylation, the membrane was probed with p-SMAD2/3 and GAPDH specific primary antibodies followed by fluorescent secondary antibodies (LI-COR Biosciences). The signal was captured and quantified with the Odyssey CLx Imaging system and ImageJ software form 3 independent experiments.

SRC = SRC (Homo sapiens, UniProt P12931); test: Biochemical kinase profiling (33PanQinase radiometric assay)
SRC, sequence (P12931 whole entry): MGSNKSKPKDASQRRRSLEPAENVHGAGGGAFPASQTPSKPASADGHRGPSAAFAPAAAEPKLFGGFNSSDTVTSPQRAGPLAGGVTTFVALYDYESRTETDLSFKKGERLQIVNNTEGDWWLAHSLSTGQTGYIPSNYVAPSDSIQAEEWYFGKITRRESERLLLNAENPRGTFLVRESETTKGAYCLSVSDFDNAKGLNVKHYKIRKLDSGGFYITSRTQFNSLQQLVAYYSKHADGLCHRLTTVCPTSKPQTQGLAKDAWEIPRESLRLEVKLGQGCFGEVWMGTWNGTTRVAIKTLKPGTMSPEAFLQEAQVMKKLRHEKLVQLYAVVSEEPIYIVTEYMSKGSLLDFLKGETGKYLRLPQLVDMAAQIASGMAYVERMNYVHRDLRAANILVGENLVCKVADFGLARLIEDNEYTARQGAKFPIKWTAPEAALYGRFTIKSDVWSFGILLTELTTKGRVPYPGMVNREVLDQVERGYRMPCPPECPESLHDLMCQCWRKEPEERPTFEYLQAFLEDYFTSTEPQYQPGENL

FGFR2 = FGFR2 (Homo sapiens, UniProt P21802); test: as above
FGFR1 = FGFR1 (Homo sapiens, UniProt P11362); test: as above
NMuMG cells [3] = test: E-cadherin, ZO1 and vimentin immunofluorescence in TGFβ-treated NMuMG cells; assay type: cell-based, murine; conditions: four days TGFβ plus inhibitor
Experimental: NMuMG and Py2T cells were trypsinized, washed, seeded at 1000 cells/well, resuspended in 40 μl growth medium with a Multidrop-384 (Titertek) in 384-well microplates (Greiner, 781091), and grown overnight at 37°C, 5% CO2. The next day, 111 μl growth medium was added with the Multidrop-384 to 1 μl of the 2 mM library compounds of which 10 μl was transferred with a 384-well pipettor (VPrep, Agilent, US) to the cell assay plate and equilibrated for 10 min (final compound concentration 3 μM). For screenings at 300 nM or 30 nM, the compounds were diluted 1:10 or 1:100 in growth medium, respectively, before use. […]
Cells were imaged using the automated epifluorescence microscope ImageXpress Micro from Molecular Devices (Sunnyvale CA, USA) equipped with a plate-loading robot (CRS Catalyst, Thermo Scientific). […] The images were automatically analyzed by MetaXpress and segmented into sub-cellular structures based on morphological features such as object size and fluorescence distribution. Fluorescence distribution was a measure of the threshold intensity above local background and was adjusted for all parameters (nuclei, FA, SF and FN) by means of the respective positive and negative controls to compensate for inter-experimental variations between the different screening batches. […] Vimentin was quantified similar to SF and FN using the Angiogenesis module. […]

FGFR4 = FGFR4 (Homo sapiens, UniProt P22455); test: Biochemical kinase profiling (33PanQinase radiometric assay)
FGFR4, sequence (P22455 22-802): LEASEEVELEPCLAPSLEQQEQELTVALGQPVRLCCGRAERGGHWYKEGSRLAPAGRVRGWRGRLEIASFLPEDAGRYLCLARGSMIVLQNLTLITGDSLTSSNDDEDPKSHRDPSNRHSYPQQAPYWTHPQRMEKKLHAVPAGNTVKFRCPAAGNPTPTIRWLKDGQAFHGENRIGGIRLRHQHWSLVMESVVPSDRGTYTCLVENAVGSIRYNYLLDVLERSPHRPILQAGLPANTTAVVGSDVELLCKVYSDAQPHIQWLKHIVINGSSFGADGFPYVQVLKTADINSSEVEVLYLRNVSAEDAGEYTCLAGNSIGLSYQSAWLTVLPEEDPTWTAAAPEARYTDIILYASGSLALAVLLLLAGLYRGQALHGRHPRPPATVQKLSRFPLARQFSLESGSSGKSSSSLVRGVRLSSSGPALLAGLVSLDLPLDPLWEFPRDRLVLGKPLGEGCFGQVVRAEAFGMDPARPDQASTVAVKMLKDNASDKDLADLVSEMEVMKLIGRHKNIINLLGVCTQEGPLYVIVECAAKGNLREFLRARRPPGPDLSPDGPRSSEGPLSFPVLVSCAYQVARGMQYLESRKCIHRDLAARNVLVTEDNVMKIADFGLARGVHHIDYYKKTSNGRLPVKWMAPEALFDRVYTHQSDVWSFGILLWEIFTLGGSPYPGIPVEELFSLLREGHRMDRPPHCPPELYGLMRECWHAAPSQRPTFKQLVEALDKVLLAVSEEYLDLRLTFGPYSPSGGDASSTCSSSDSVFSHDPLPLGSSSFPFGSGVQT

PDGFRA = PDGFRA (Homo sapiens, UniProt P16234); test: as above
PDGFRA, sequence (P16234 24-1089): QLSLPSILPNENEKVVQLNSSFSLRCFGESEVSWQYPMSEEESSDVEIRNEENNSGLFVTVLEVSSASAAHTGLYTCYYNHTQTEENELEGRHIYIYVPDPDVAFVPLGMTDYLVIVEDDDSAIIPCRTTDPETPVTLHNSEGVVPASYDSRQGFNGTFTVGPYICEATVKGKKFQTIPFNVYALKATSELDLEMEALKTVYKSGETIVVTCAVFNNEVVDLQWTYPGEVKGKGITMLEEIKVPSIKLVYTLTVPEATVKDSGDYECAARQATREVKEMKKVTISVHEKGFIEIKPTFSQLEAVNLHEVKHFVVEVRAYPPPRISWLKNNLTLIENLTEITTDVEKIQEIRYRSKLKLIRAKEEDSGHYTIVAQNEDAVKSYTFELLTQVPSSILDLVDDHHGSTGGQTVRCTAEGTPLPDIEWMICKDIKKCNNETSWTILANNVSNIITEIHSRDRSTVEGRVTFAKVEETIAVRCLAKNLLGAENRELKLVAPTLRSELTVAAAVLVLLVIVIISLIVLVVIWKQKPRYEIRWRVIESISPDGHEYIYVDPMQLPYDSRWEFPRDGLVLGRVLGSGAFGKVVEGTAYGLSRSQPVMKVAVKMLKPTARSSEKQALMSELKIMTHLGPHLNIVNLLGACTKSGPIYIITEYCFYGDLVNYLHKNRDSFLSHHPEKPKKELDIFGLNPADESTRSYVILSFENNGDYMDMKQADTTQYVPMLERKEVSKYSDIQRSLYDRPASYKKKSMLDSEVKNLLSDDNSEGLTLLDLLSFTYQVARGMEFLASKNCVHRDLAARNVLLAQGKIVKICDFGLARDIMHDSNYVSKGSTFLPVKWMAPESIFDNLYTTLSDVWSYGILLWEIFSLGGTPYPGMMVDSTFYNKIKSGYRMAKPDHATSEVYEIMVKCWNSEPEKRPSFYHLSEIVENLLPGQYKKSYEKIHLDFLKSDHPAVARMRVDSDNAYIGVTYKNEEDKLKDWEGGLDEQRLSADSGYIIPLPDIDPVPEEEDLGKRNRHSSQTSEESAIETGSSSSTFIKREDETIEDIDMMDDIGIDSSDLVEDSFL

Py2T cells = test: High-content microscopy EMT assay in TGFβ-treated Py2T breast cancer cells; assay type: cell-based, murine; conditions: for Emax (maximal effect on cell count): compared to reference 10 μM SB-431542 = 100%
EGFR = EGFR (Homo sapiens, UniProt P00533); test: Biochemical kinase profiling (33PanQinase radiometric assay)
EGFR, sequence (P00533 25-1210): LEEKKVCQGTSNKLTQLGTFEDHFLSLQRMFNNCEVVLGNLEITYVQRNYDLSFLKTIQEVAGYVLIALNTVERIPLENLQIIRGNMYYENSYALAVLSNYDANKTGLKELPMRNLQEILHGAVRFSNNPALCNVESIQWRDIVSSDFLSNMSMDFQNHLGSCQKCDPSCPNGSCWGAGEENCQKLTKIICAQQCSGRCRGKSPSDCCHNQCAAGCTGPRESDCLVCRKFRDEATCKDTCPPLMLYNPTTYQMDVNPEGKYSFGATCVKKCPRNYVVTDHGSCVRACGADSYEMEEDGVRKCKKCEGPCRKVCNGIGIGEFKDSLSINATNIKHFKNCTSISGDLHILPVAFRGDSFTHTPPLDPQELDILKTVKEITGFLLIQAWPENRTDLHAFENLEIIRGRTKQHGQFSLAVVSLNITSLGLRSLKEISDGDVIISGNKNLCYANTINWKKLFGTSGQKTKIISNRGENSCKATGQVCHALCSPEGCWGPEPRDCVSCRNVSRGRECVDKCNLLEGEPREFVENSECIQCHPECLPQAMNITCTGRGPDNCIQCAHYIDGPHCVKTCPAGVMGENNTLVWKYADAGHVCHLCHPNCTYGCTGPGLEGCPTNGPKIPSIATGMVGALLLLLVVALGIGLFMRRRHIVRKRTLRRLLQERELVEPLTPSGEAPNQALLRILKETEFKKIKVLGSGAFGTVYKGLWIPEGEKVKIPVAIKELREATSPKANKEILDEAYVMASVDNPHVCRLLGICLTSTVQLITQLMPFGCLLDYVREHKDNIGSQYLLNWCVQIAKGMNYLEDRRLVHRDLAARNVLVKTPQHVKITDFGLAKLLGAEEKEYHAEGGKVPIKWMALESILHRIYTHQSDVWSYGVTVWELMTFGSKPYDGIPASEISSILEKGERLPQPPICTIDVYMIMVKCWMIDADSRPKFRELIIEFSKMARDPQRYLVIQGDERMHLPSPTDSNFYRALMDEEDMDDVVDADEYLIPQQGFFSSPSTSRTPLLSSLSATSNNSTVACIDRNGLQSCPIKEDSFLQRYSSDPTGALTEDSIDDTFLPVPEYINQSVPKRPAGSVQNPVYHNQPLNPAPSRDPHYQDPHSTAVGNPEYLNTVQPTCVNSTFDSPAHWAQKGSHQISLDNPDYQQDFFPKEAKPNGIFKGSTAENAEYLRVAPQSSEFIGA

ROCK2 = ROCK2 (Homo sapiens, UniProt O75116); test: as above
ROCK1 = ROCK1 (Homo sapiens, UniProt Q13464); test: as above
ROCK = ROCK cellular assay (MLC Thr18/Ser19 phosphorylation ELISA in A7r5 cells); assay type: cell-based, rat; conditions: 90 min compound
TGFBR1 = biological target: T1, TGFBR1 (Homo sapiens, UniProt P36897); test: Biochemical kinase profiling (33PanQinase radiometric assay)
T1 sequence (P36897 34-503): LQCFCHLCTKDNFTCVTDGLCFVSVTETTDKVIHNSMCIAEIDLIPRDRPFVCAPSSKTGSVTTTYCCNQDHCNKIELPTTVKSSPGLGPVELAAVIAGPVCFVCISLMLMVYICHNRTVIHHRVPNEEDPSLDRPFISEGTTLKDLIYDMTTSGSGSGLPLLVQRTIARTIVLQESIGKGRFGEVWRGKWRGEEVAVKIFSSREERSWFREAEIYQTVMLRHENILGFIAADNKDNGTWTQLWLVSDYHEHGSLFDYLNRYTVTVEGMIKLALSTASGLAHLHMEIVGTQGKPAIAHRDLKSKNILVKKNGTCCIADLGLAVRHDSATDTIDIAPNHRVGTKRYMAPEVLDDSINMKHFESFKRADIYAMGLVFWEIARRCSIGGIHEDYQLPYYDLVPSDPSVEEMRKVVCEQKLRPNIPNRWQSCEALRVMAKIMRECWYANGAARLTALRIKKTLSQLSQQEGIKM

TGFBR2 = TGFBR2 (Homo sapiens, UniProt P37173); test: as above
TGFBR2, sequence (P37173 23-567): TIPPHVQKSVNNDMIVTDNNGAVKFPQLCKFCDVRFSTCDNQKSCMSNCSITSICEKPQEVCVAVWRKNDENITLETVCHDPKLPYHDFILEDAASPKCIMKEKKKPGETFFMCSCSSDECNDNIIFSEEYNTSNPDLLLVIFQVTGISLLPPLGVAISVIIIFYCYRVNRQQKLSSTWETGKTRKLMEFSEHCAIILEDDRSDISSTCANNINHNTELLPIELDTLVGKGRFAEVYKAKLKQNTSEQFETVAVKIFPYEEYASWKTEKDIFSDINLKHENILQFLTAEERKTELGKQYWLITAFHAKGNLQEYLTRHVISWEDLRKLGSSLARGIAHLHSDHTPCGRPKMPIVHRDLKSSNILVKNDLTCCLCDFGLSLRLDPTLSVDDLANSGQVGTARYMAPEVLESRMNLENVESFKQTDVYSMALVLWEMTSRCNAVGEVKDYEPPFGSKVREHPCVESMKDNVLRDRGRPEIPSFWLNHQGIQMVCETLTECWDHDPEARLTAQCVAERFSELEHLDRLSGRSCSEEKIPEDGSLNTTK

[4] = Mus musculus, 96 h, NMuMG, TGFβ1 2 ng/ml plus compound, 4 days, parameter decreased by 50%, read-out: FN IC50 (fibronectin patch formation)
[5] = Mus musculus, 96 h, NMuMG, TGFβ1 2 ng/ml plus compound, 4 days, parameter decreased by 50%, read-out: SF IC50 (stress fibers)
[6] = Mus musculus, NMuMG, cell count decreased by 50% compared to DMSO control, read-out: Tox IC50
[7] = Mus musculus, read-out: CCI IC50 (cell count increase)
[8] = Mus musculus, Py2T, cell count decreased by 50% compared to DMSO control, read-out: Tox IC50
[9] = Py2T, TGFβ plus compound, 4 days

| SMILES | IC50 (NMuMG cells [1]; [4]) [nM] | IC50 (NMuMG cells [1]; [5]) [nM] | IC50 (NMuMG cells [1]; [6]) [nM] | IC50 (NMuMG cells [1]; [7]) [nM] | Emax (NMuMG cells [1]; Mus musculus) [%] | IC50 (PDGFRB) [nM] | IC50 (FGFR3) [nM] | SMAD3 phosphorylation (p-SMAD3/GAPDH) [2] | IC50 (SRC) [nM] | IC50 (FGFR2) [nM] | IC50 (FGFR1) [nM] | IC50 (FGFR4) [nM] | IC50 (PDGFRA) [nM] | IC50 (Py2T cells; [8]) [nM] | IC50 (EGFR) [nM] | Emax (maximal effect on cell count) (NMuMG cells [1]; NMuMG) | Emax (maximal effect on cell count) (Py2T cells; Py2T) | further results |
| --- | --- | --- | --- | --- | --- | --- | --- | --- | --- | --- | --- | --- | --- | --- | --- | --- | --- | --- |
| NC(=O)c1ccc(-c2nc(-c3ccc4c(c3)OCO4)c(-c3ccccn3)[nH]2)cc1 [SB-431542] | 195 | 184 | > 25000 | 584 | 100 | > 10000 | > 10000 | blocked | > 10000 | > 10000 | > 10000 | > 10000 | > 10000 | 7460 | > 10000 |  |  | IC50 (NMuMG cells [1]; Mus musculus, 96 h, NMuMG, TGFβ1 2 ng/ml plus compound, 4 days, parameter decreased by 50%, read-out: FA IC50 (focal adhesion formation)): 243 nM; IC50 (NMuMG cells [1]; Mus musculus, NMuMG, TGFβ treatment, proof of concept, read-out: IC50 in all three parameters (focal adhesion formation, stress fibers, fibronectin deposition)): ~200 nM; IC50 (NMuMG cells [1]; Mus musculus, NMuMG, mean of IC50 values obtained for FA, SF, FN, read-out: EMT (FA/SF/FN) combined IC50): 388 nM; effect on TGFβ-induced loss of E-cadherin and ZO1 from junctions and vimentin filament formation (NMuMG cells [3]): completely blocked; IC50 (Py2T cells; Mus musculus, 96 h, Py2T, TGFβ plus compound, 4 days, read-out: FA IC50 (focal adhesions)): 156 nM; IC50 (Py2T cells; Mus musculus, 96 h, Py2T, TGFβ plus compound, 4 days, read-out: FN IC50 (fibronectin patches)): 167 nM; IC50 (Py2T cells; Mus musculus, 96 h, Py2T, TGFβ plus compound, 4 days, read-out: SF IC50 (stress fibers)): 175 nM; IC50 (Py2T cells; Mus musculus, Py2T, TGFβ-induced EMT, read-out: IC50 for reduction of EMT markers): ~200 nM; IC50 (Py2T cells; [7]): 140 nM; Emax (Py2T cells; Mus musculus, read-out: Emax (maximal effect on cell count)): 100% |
| COCCOc1ccc2c(c1)ncn2-c1ccc2cccc(N3CCC(N)CC3)c2n1 [CP673451] | 2050 | 2560 | 3590 |  |  | 1.9 | 9090 |  | 1070 | 1010 | 5630 | > 10000 | 618 |  | 2120 | n.m. |  | FA IC50 (focal adhesion formation) (NMuMG cells [1]; NMuMG, TGFβ1 2 ng/ml plus compound, 4 days, parameter decreased by 50%): n.m.; IC50 (ROCK2): 1000 nM; IC50 (ROCK1): 3370 nM; IC50 (ROCK; Rattus norvegicus, 1.5 h): 1500 nM; IC50 (TGFBR1): > 10000 nM; IC50 (TGFBR2): > 10000 nM |
| C[C@@H](N)[C@H]1CC[C@H](C(=O)Nc2ccncc2)CC1.Cl.Cl [Y-27632 2HCl] |  |  |  |  |  |  |  | unchanged |  |  |  |  |  |  |  | 17.6% | 43.8% | IC50 (NMuMG cells [1]; NMuMG, TGFβ1 2 ng/ml plus compound, 4 days, parameter decreased by 50%, read-out: FA IC50 (focal adhesion formation)): 2650 nM; IC50 (NMuMG cells [1]; NMuMG, TGFβ1 2 ng/ml plus compound, 4 days, parameter decreased by 50%, read-out: FN IC50 (fibronectin patch formation)): 1190 nM; IC50 (NMuMG cells [1]; NMuMG, TGFβ1 2 ng/ml plus compound, 4 days, parameter decreased by 50%, read-out: SF IC50 (stress fibers)): 1310 nM; IC50 (NMuMG cells [1]; NMuMG, cell count decreased by 50% compared to DMSO control, read-out: Tox IC50): > 25000 nM; IC50 (NMuMG cells [1]; NMuMG, cell count increased by 50% compared to 100% with 10 μM SB-431542, read-out: CCI IC50 (cell count increase)): 1110 nM; IC50 (NMuMG cells [1]; NMuMG, mean of IC50 values obtained for FA, SF, FN, read-out: EMT (FA/SF/FN) combined IC50): 1720 nM; IC50 (ROCK): 430 nM; IC50 (Py2T cells; Py2T, TGFβ plus compound, 4 days, read-out: FA IC50 (focal adhesions)): 2150 nM; IC50 (Py2T cells; Py2T, TGFβ plus compound, 4 days, read-out: FN IC50 (fibronectin patches)): 4830 nM; IC50 (Py2T cells; Py2T, TGFβ plus compound, 4 days, read-out: SF IC50 (stress fibers)): 1710 nM; IC50 (Py2T cells; Py2T, cell count decreased by 50% compared to DMSO control, read-out: Tox IC50): > 25000 nM; IC50 (Py2T cells; Py2T, compared to 10 μM SB-431542, read-out: CCI IC50 (cell count increase)): 770 nM |
| O=c1[nH]c(=O)n([C@H]2C[C@H](O)[C@@H](CO)O2)cc1I [Idoxuridine] | 948 | 1170 | > 25000 | 291 | 12.9 |  |  | unchanged |  |  |  |  |  | 6350 |  |  | n.m. | FA IC50 (focal adhesions) (Py2T cells; [9]): n.m.; FN IC50 (fibronectin patches) (Py2T cells; [9]): n.m.; SF IC50 (stress fibers) (Py2T cells; [9]): n.m. |
